PMC9227106 (Viruses, 2022)
Values joined by “and” are separate entries in the source; they are usually repeats but may differ in a detail not shown here. Equal values may be shown once. Read-outs that look alike come from different tables or passages of the source.

Columns and labels:
[1] = Cell-based cytotoxicity analysis, WST-1 assay (HeLa cell); settings: human; for viability at 48 h, 10 µM: vs DMSO; for CC50: 50% cytotoxic concentration, HeLa cells, WST-1
[2] = test system: HIV-1 NF462; assay: Inhibition assay of HIV replication in HIV-infected MDM (p24 ELISA); format: cell-based; settings: for inhibition of HIV-1 replication in MDM / inhibition at 10 µM: 10 µM; for inhibition of HIV-1 replication in MDM: two healthy donors 1 and 2, result in words; for inhibition at 10 µM: 8 days; for IC50: read-out: MDM IC50; for MDM SI: selective index, calculated as CC50/IC50 in MDM
[3] = test system: Vpr-induced G2/M arrest in Vpr transfected HeLa cells; assay: Cell-based G2 arrest inhibition assay using […]; design: species or system human; settings: 10 µM, 44 h; for G2 arrest recover (CELAVIEW) recover rate vs DMSO(%): added 4 h post-transfection
[4] = biological target: T1, GST-tagged Vpr protein (Human immunodeficiency virus type 1 group M subtype B, UniProt P12520); assay: Surface plasmon resonance (SPR) binding analysis; design: species or system HIV-1; settings: for direct binding to Vpr (SPR): 50 μM compound, GST-Vpr on sensor chip, result in words; for Vpr Binding Kd: SPR (Biacore), GST-Vpr, 3.13 to 100 µM, two independent experiments
T1 construct: made in house; host or cells: E. coli

[5] = test system: Vpr-induced G2/M arrest in Vpr transfected HeLa cells; assay: Analysis of the cell cycle using flow cytometry; format: cell-based, human; settings: for recovery of the G2-arrest mediated by Vpr (flow cytometry): 10 μM, Vpr-expressing HeLa cells, result in words; for G2 arrest recover (Flow cytometry) Vpr G1% / G2 arrest recover (Flow cytometry) Vpr G2% / G2 arrest recover (Flow cytometry) Vpr G2/G1: Flag-Vpr transfected HeLa; for G2 arrest recover (Flow cytometry) Vpr G1% / G2 arrest recover (Flow cytometry) Vpr G2% / G2 arrest recover (Flow cytometry) Vpr G2/G1 / G2 arrest recover (Flow cytometry) ZsG G1% / G2 arrest recover (Flow cytometry) ZsG G2% / G2 arrest recover (Flow cytometry) ZsG G2/G1: 10 µM; for G2 arrest recover (Flow cytometry) ZsG G1% / G2 arrest recover (Flow cytometry) ZsG G2% / G2 arrest recover (Flow cytometry) ZsG G2/G1: control vector (ZsG) transfected HeLa
[6] = test system: Flag-Vpr in HeLa cells; assay: Localization of Vpr visualized by confocal microscopy; format: cell-based, HIV-1; settings: 10 μM, 44 h post-treatment
[7] = test system: Flag-Vpr in HeLa cells; assay: Expression level of Vpr assessed by Western blotting analysis; format: cell-based, HIV-1; settings: 10 μM, 44 h post-treatment
[8] = Cell-based cytotoxicity analysis, WST-1 assay (MDM cell); settings: human
[9] = average of n=1 and n=2, read-out: HeLa viability (%) AVERAGE
[10] = replicate 1, read-out: HeLa viability (%) viability n=1
[11] = replicate 2, read-out: HeLa viability (%) viability n=2
[12] = Human immunodeficiency virus 1, MDM donor 1, p24 ELISA, read-out: HIV replication inhibition (%) Donor 1
[13] = Human immunodeficiency virus 1, MDM donor 2, p24 ELISA, read-out: HIV replication inhibition (%) Donor 2
[14] = Human immunodeficiency virus 1, HIV-1 NF462-infected MDM, donors 1 and 4, 8 days, p24 ELISA

T1 sequence (P12520 whole entry): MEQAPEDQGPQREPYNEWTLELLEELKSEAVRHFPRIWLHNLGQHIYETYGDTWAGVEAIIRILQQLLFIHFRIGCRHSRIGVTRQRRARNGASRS

Question: Which results are given for `COCCCNC(=O)C(=O)N/N=C/c1c(O)ccc2ccccc12` [VTD227, N-[(1E)-2-(2-hydroxynaphthyl)-1-azavinyl]-N′-(3-methoxypropyl)ethane-1,2-diamide]?
Answer: viability at 48 h, 10 µM [1, 9]: 89.2%; viability at 48 h, 10 µM [1, 10]: 84.2%; viability at 48 h, 10 µM [1, 11]: 94.2%; CC50 [1]: 99 ± 22 µM; inhibition of HIV-1 replication in MDM [2]: potently inhibited HIV-1 replication; inhibition at 10 µM [2, 12]: 99.5%; inhibition at 10 µM [2, 13]: 103%; IC50 [2, 14]: 780 ± 590 nM; MDM SI [2]: 22.9; G2 arrest recover (CELAVIEW) cell count vs DMSO [3]: 72.8; G2 arrest recover (CELAVIEW) recover rate vs DMSO(%) [3]: 60.0%; Kd [4]: 8.8 ± 0.48 µM; recovery of the G2-arrest mediated by Vpr (flow cytometry) [5]: recovered the G2-arrest mediated by Vpr; G2 arrest recover (Flow cytometry) Vpr G1% [5]: 41.76%; G2 arrest recover (Flow cytometry) Vpr G2% [5]: 22.13%; G2 arrest recover (Flow cytometry) Vpr G2/G1 [5]: 0.52 and 0.5299; G2 arrest recover (Flow cytometry) ZsG G1% [5]: 44.2%; G2 arrest recover (Flow cytometry) ZsG G2% [5]: 25.62%; G2 arrest recover (Flow cytometry) ZsG G2/G1 [5]: 0.57 and 0.5796; localization of Vpr in HeLa cells [6]: not affected; expression level of Vpr in HeLa cells [7]: not affected; CC50 at 48 h [8]: 17.9 ± 5.3 µM; viability at 10 days, 10 µM [8]: 82%

Question: With `COc1ccc2ccccc2c1C1C=C(c2ccccc2)NC(=S)N1` (stereo not shown) [VTD232, 4-(2-methoxy-1-naphthyl)-6-phenyl-3,4-dihydro-2(1H)-pyrimidinethione] as the molecule, how does the viability at 48 h, 10 µM [1, 9] read?
Answer: 87.5%

Question: What about the viability at 48 h, 10 µM [1, 10] of the same molecule?
Answer: 88%

Question: What about the viability at 48 h, 10 µM [1, 11] of the same molecule?
Answer: 87%

Question: What about the CC50 [1] of the same molecule?
Answer: 57.1 ± 30.9 µM

Question: What about the “inhibition of HIV-1 replication in MDM” value [2] of the same molecule?
Answer: potently inhibited HIV-1 replication

Question: What about the inhibition at 10 µM [2, 12] of the same molecule?
Answer: 99.1%

Question: And the inhibition at 10 µM [2, 13]?
Answer: 82.2%

Question: What about the IC50 [2, 14] of the same molecule?
Answer: 3.9 ± 4.6 nM

Question: And the “MDM SI” value [2]?
Answer: 7820

Question: And the “G2 arrest recover (CELAVIEW) cell count vs DMSO” value [3]?
Answer: 95.1

Question: What about the “G2 arrest recover (CELAVIEW) recover rate vs DMSO(%)” value [3] of the same molecule?
Answer: 49.2%

Question: What about the “direct binding to Vpr (SPR)” value [4] of the same molecule?
Answer: did not directly bind to Vpr

Question: What about the “Vpr Binding Kd” value [4] of the same molecule?
Answer: Not binding

Question: What about the “recovery of the G2-arrest mediated by Vpr (flow cytometry)” value [5] of the same molecule?
Answer: recovered the G2-arrest mediated by Vpr

Question: What about the “G2 arrest recover (Flow cytometry) Vpr G1%” value [5] of the same molecule?
Answer: 29.06%

Question: What about the “G2 arrest recover (Flow cytometry) Vpr G2%” value [5] of the same molecule?
Answer: 39.99%

Question: And the “G2 arrest recover (Flow cytometry) Vpr G2/G1” value [5]?
Answer: 1.376

Question: What about the “G2 arrest recover (Flow cytometry) ZsG G1%” value [5] of the same molecule?
Answer: 49.39%

Question: And the “G2 arrest recover (Flow cytometry) ZsG G2%” value [5]?
Answer: 11.48%

Question: What about the “G2 arrest recover (Flow cytometry) ZsG G2/G1” value [5] of the same molecule?
Answer: 0.2324

Question: What about the “localization of Vpr in HeLa cells” value [6] of the same molecule?
Answer: not affected

Question: And the “expression level of Vpr in HeLa cells” value [7]?
Answer: not affected

Question: What about the CC50 at 48 h [8] of the same molecule?
Answer: 30.5 ± 5 µM

Question: What about the viability at 10 days, 10 µM [8] of the same molecule?
Answer: 116%

Question: Which viability at 48 h, 10 µM [1, 9] does the source give for `CCOc1ccc(OCC(=O)Nc2cc(C)nn2-c2nc(C)c(CC)c(O)n2)cc1` [VTD263, 2-(4-ethoxyphenoxy)-N-[1-(5-ethyl-6-methyl-4-oxo(3-hydropyrimidin-2-yl))-3-methylpyrazol-5-yl]acetamide] here?
Answer: 70.1%

Question: And the viability at 48 h, 10 µM [1, 10]?
Answer: 65.5%

Question: And the viability at 48 h, 10 µM [1, 11]?
Answer: 74.7%

Question: What about the CC50 [1] of the same molecule?
Answer: > 100 µM

Question: What about the “inhibition of HIV-1 replication in MDM” value [2] of the same molecule?
Answer: potently inhibited HIV-1 replication

Question: What about the “effect on HIV-1 replication at low concentration” value ([2]; 0.01 to 0.001 μM, MDM) of the same molecule?
Answer: tended to increase HIV-1 replication

Question: And the IC50 ([2]; Human immunodeficiency virus 1, […])?
Answer: 11400 ± 4000 nM

Question: And the inhibition at 10 µM [2, 12]?
Answer: 91.2%

Question: And the inhibition at 10 µM [2, 13]?
Answer: 73.3%

Question: What about the “effect on HIV-1 virus release at high concentration” value ([2]; high concentration, MDM) of the same molecule?
Answer: decreased the HIV-1 virus release

Question: What about the “MDM SI” value [2] of the same molecule?
Answer: 3.4

Question: What about the “G2 arrest recover (CELAVIEW) cell count vs DMSO” value [3] of the same molecule?
Answer: 81.6

Question: And the “G2 arrest recover (CELAVIEW) recover rate vs DMSO(%)” value [3]?
Answer: 95.5%

Question: What about the “direct binding to Vpr (SPR)” value [4] of the same molecule?
Answer: did not directly bind to Vpr

Question: What about the “Vpr Binding Kd” value [4] of the same molecule?
Answer: Not binding

Question: What about the “recovery of the G2-arrest mediated by Vpr (flow cytometry)” value [5] of the same molecule?
Answer: recovered the G2-arrest mediated by Vpr

Question: And the “G2 arrest recover (Flow cytometry) Vpr G1%” value [5]?
Answer: 45.86%

Question: What about the “G2 arrest recover (Flow cytometry) Vpr G2%” value [5] of the same molecule?
Answer: 23.17%

Question: What about the “G2 arrest recover (Flow cytometry) Vpr G2/G1” value [5] of the same molecule?
Answer: 0.5052

Question: What about the “G2 arrest recover (Flow cytometry) ZsG G1%” value [5] of the same molecule?
Answer: 43.35%

Question: What about the “G2 arrest recover (Flow cytometry) ZsG G2%” value [5] of the same molecule?
Answer: 18.73%

Question: And the “G2 arrest recover (Flow cytometry) ZsG G2/G1” value [5]?
Answer: 0.4321

Question: And the “localization of Vpr in HeLa cells” value [6]?
Answer: not affected

Question: And the “expression level of Vpr in HeLa cells” value [7]?
Answer: not affected

Question: What about the CC50 at 48 h [8] of the same molecule?
Answer: 38.8 ± 0.76 µM

Question: What about the viability at 10 days, 10 µM [8] of the same molecule?
Answer: 131%
